The experiment concerns the target Complement factor D (Homo sapiens, UniProt P00746). As to the kind of experiment: Not found.
Source text: Not found
Complement factor D, sequence (P00746 whole entry): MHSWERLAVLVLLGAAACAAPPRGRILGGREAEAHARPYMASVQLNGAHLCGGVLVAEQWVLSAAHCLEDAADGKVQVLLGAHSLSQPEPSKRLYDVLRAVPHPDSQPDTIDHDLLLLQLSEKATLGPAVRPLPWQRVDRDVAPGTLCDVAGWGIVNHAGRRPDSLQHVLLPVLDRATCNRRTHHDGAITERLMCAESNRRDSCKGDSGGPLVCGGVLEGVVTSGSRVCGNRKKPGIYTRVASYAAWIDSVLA
`NC(=O)c1nn(CC(=O)N2C[C@H](F)C[C@H]2C(=O)Nc2cccc(-c3nc4cccc(Cl)c4[nH]3)c2F)c2ccccc12` [US10807952, Cmp No. 27] registered an IC50 below 1 µM. In the case of `NC(=O)c1nn(CC(=O)N2C[C@H](F)C[C@H]2C(=O)Nc2cccc(-c3ccc4[nH]cnc4c3Cl)c2F)c2ccc(Br)cc12` [US10807952, Cmp No. 4] it was below 1 µM.

`NC(=O)c1nn(CC(=O)N2C[C@H](F)C[C@H]2C(=O)Nc2cccc(Br)n2)c2cc(C(F)(F)F)sc12` [US10807952, Cmp No. 34] had an IC50 below 1 µM. In the case of `CC(=O)c1nn(CC(=O)N2C[C@H](F)C[C@H]2C(=O)Nc2cccc(-c3ccc4[nH]cnc4c3Cl)c2F)c2cnccc12` [US10807952, Cmp No. 1] it was below 1 µM; in that of `NC(=O)c1cccc(CC(=O)N2C[C@H](F)C[C@H]2C(=O)Nc2cccc(-c3ccccc3Cl)c2F)n1` [US10807952, Cmp No. 38], below 1 µM.

For the origin of these results see BindingDB's records for patent US10807952 (Achillion Pharmaceuticals, Inc., 2020).
